Measurements reported in paper PMC6941124 (International Journal of Molecular Sciences, 2019).
Where a chain is given by its changes, count along the chain named. pEC50, pIC50: −log10 of the molar value.

How the values were obtained:
CK1δ R127Q = molecular target: T1, CK1δ R127Q (Homo sapiens, UniProt P48730, R127Q); test: in vitro kinase assay, CK1δ mutant R127Q; type: biochemical; conditions: 10 µM inhibitor, Figure 5b
T1 sequence (P48730 1-415 R127Q): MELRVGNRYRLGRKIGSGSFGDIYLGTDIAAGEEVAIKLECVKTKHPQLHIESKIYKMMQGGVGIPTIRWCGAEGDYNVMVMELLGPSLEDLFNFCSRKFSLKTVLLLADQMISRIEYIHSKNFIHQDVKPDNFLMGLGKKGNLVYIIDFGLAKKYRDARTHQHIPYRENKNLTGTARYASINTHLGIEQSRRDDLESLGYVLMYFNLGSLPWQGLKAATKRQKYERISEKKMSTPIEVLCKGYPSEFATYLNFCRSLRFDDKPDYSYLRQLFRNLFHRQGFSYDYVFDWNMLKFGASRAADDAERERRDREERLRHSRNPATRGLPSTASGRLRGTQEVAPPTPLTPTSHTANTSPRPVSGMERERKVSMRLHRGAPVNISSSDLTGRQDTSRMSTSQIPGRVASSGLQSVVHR
Protocol: (§1) Overexpression and purification of GST-CK1δ fusion proteins, either wild type or mutant, were performed as described previously.
(§2) Each kinase assay reaction was performed in kinase buffer (25 mM Tris-HCl (pH 7.5), 10 μM ATP, 10 mM MgCl2, 100 μM EDTA) in presence of purified GST-CK1δ kinase as source of enzyme (either wild type or mutant), an assay-specific substrate (α-casein, GST-p53^1−64, or GST-β-catenin^1−181), and radiolabeled ATP (2 μCi [γ-^32P]-ATP). For performing Michaelis–Menten analysis increasing substrate concentrations were used (α-casein: 0.39−25 μM; GST-p53^1−64: 0.09−1.87 μM; GST-β-catenin^1−181: 0.07−1.32 μM). For biological evaluation of small molecule inhibitors (SMIs), each inhibitor compound was either tested at 10 μM concentration for initial screening or by using a dilution series (0.005−10 µM) for determination of IC50 values. DMSO was used as control. Reactions were incubated for 30 min at 30 °C and reactions were stopped using 5x SDS-loading buffer (250 mM Tris-HCl [pH 6.8], 25% (v/v) β-mercaptoethanol (MSH), 50% (v/v) glycerol, 10% (w/v) SDS, 0.5% (w/v) bromphenol blue). Subsequently, samples were separated by SDS-PAGE using 12.5% acrylamide gels, stained with Coomassie, and phosphorylated substrates were visualized on X-ray film. Incorporation of radiolabeled phosphate was quantified by scintillation counting of Coomassie-stained substrate bands. Defined dilutions of the reaction master mix were counted as well in order to convert results obtained as counts per minute (CPM) to units of transferred phosphate in pmol/min. Michaelis–Menten analysis was performed using GraphPad Prism 6 (GraphPad Software, San Diego, CA, USA).

CK1ε = CK1ε (Homo sapiens, UniProt P49674); test: in vitro kinase assay, CK1ε; type: biochemical; conditions: 10 µM inhibitor, initial screening
CK1δ T67S = molecular target: T2, CK1δ T67S (Homo sapiens, UniProt P48730, T67S); test: in vitro kinase assay, CK1δ mutant T67S; type: biochemical; conditions: 10 µM inhibitor, Figure 5a
T2 sequence (P48730 1-415 T67S): T1 sequence (P48730 1-415 R127Q) with T67S, Q127R
Protocol: as §1, §2

CK1γ = test: in vitro kinase assay, CK1γ; type: biochemical; conditions: 10 µM inhibitor, initial screening
parental HeLa cells = test: MTT viability assay, parental HeLa cells; type: cell-based; conditions: 25 μM, 48 h
Protocol: (§3) Parental HeLa cells, as well as HeLa CSNK1D knock-out cells (CK1δ^−/−) (generated by CRISP/Cas9 technology and provided by EDIGENE, Beijing, China), were cultured in Dulbecco’s Modified Eagle medium (DMEM). HCT-116 and HT-29 colon cancer cells were cultured in McCoy’s 5A medium whereas SW480 and SW620 colon cancer cells were cultured in Leibovitz’s L-15 medium. All media were supplemented with 10% (v/v) fetal bovine serum (FBS), 100 units/mL penicillin, and 100 µg/mL streptomycin. DMEM-based medium for the culture of HeLa CSNK1D knock-out cells was additionally supplemented with 1 μg/mL puromycin. Cell cultures were maintained at 37 °C in a humidified atmosphere containing 5% CO2. Cells were transfected using Effectene transfection reagent (Qiagen, Hilden, Germany) according to the manufacturer’s instructions. […]
(§4) For performing MTT viability assays, cells were seeded in a 96-well plate (5 × 10^4 cells/well for HeLa cells (parental, CK1δ^−/−, or CK1δ^−/− cells stably transfected with wild type or mutant CK1δ), HCT-116, and HT-29 cells or 7.5 × 10^4 cell/well for SW480 and SW620 cells). […] Absorbance was measured at 570 nm with TriStar^2 LB942 Microplate Reader (Berthold Technologies, Bad Wildbad, Germany) and data analysis was performed using GraphPad Prism 6 (GraphPad Software, San Diego, CA, USA).

HeLa CK1δ−/− cells = test: MTT viability assay, HeLa CK1δ−/− cells; type: cell-based; conditions: 48 h; for Effects on cell viability of CK1δ−/− cells compared to parental and/or CK1δ+/+ cells: 25 μM
Protocol: (§5) Parental HeLa cells, as well as HeLa CSNK1D knock-out cells (CK1δ^−/−) (generated by CRISP/Cas9 technology and provided by EDIGENE, Beijing, China), were cultured in Dulbecco’s Modified Eagle medium (DMEM). HCT-116 and HT-29 colon cancer cells were cultured in McCoy’s 5A medium whereas SW480 and SW620 colon cancer cells were cultured in Leibovitz’s L-15 medium. All media were supplemented with 10% (v/v) fetal bovine serum (FBS), 100 units/mL penicillin, and 100 µg/mL streptomycin. DMEM-based medium for the culture of HeLa CSNK1D knock-out cells was additionally supplemented with 1 μg/mL puromycin. Cell cultures were maintained at 37 °C in a humidified atmosphere containing 5% CO2. Cells were transfected using Effectene transfection reagent (Qiagen, Hilden, Germany) according to the manufacturer’s instructions. For selection of stably transfected clones, transfected cells were grown in selective medium, containing 0.6 mg/mL of G-418 (Calbiochem-Merck Millipore, Darmstadt, Germany).
(§6) For performing MTT viability assays, cells were seeded in a 96-well plate (5 × 10^4 cells/well for HeLa cells (parental, CK1δ^−/−, or CK1δ^−/− cells stably transfected with wild type or mutant CK1δ), HCT-116, and HT-29 cells or 7.5 × 10^4 cell/well for SW480 and SW620 cells). After 24 h, old medium was replaced with fresh medium containing either the small molecule of interest or DMSO as control. After 48 h of treatment, 10 μL MTT (5 mg/mL) was added and incubated at 37 °C for 4 h. The medium was then gently removed and 100 μL of acidic isopropanol was added (90% (v/v) isopropanol, 10% (v/v) 1 N HCl). Cell culture plates were then shaken for 30 min at room temperature. Absorbance was measured at 570 nm with TriStar^2 LB942 Microplate Reader (Berthold Technologies, Bad Wildbad, Germany) and data analysis was performed using GraphPad Prism 6 (GraphPad Software, San Diego, CA, USA).

[1] = molecular target: CK1δ wild type (GST-CK1δ) (Homo sapiens, UniProt P48730); test: in vitro kinase assay, GST-CK1δ wild type; type: biochemical; conditions: for Kinase activity of CK1δ in presence of inhibitor: 10 µM inhibitor, initial screening; for pIC50: dilution series 0.005−10 µM, mean ± standard error, triplicate
Protocol: as §1, §2

CK1α = CK1α (Homo sapiens, UniProt P48729); test: in vitro kinase assay, CK1α; type: biochemical; conditions: 10 µM inhibitor, initial screening
CK1δ R168H = molecular target: T3, CK1δ R168H (Homo sapiens, UniProt P48730, R168H); test: in vitro kinase assay, CK1δ mutant R168H; type: biochemical; conditions: 10 µM inhibitor, among 16-19, Figure 5c
T3 sequence (P48730 1-415 R168H): T1 sequence (P48730 1-415 R127Q) with Q127R, R168H
Protocol: as §1, §2

[2] = system: HeLa CK1δ−/− cells expressing CK1δ R127Q; test: MTT viability assay, HeLa CK1δ−/− cells expressing CK1δ R127Q; type: cell-based; conditions: 10 μM, 48 h, difference not statistically significant
Protocol: as §3, §4

[3] = system: HeLa CK1δ−/− cells expressing CK1δ R168H; test: MTT viability assay, HeLa CK1δ−/− cells expressing CK1δ R168H; type: cell-based; conditions: 10 μM, 48 h
Protocol: as §3, §4

[4] = system: HeLa CK1δ+/+ cells (HeLa CK1δ−/− stably transfected with CK1δ); test: MTT viability assay, HeLa CK1δ+/+ cells; type: cell-based; conditions: 48 h; for Cell viability of CK1δ-expressing cells (HeLa parental or CK1δ+/+) compared to CK1δ-deficient cells (HeLa CK1δ−/−): 25 μM
Protocol: as §5, §6

[5] = system: HeLa CK1δ−/− cells expressing CK1δ T67S; test: MTT viability assay, HeLa CK1δ−/− cells expressing CK1δ T67S; type: cell-based; conditions: 10 μM, 48 h
Protocol: as §3, §4

SW620 colon cancer cells = test: MTT viability assay, SW620; type: cell-based, human; conditions: 48 h
Protocol: as §5, §6

SW480 colon cancer cells = test: MTT viability assay, SW480; type: cell-based, human; conditions: 10 µM, 48 h, initial screening (Figure 10a)
Protocol: as §5, §6

HT-29 colon cancer cells = test: MTT viability assay, HT-29; type: cell-based; conditions: 10 µM, 48 h, initial screening (Figure 10a)
Protocol: as §5, §6

Sequence of CK1δ wild type (GST-CK1δ) (P48730 whole entry): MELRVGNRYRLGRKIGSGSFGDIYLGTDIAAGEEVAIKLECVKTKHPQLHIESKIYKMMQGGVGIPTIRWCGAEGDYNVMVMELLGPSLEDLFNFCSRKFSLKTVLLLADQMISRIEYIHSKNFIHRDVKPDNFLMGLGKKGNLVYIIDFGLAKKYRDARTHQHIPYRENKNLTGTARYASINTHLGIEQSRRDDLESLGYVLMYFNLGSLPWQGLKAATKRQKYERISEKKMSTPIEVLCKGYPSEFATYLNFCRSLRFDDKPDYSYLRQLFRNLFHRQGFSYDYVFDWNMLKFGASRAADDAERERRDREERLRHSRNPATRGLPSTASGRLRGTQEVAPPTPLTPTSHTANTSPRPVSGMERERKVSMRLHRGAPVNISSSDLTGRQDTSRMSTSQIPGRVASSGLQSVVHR
Sequence of CK1α (P48729 whole entry): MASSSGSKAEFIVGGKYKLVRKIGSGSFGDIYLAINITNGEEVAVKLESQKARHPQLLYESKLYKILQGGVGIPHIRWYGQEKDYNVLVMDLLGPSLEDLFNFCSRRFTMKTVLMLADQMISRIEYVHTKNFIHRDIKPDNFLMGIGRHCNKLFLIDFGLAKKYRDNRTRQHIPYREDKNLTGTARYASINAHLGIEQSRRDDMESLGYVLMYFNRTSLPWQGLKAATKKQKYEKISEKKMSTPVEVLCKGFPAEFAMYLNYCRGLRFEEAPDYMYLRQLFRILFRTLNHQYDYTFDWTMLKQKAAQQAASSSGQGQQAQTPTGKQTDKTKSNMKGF
Sequence of CK1ε (P49674 whole entry): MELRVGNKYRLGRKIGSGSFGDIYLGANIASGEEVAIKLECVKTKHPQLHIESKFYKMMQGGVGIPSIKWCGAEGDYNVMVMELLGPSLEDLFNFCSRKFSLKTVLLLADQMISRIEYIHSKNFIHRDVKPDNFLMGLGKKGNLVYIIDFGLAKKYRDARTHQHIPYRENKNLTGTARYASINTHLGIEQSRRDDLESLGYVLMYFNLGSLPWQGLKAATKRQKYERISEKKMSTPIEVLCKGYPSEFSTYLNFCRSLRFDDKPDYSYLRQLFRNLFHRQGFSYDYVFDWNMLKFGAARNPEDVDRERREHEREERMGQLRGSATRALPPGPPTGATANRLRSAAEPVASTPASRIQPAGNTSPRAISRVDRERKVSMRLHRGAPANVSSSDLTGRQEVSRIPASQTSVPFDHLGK

Row | Kinase activity of CK1ε in presence of inhibitor (CK1ε) | Inhibition of CK1δ T67S compared to wild type CK1δ (CK1δ T67S) | Kinase activity of CK1γ in presence of inhibitor (CK1γ) | Kinase activity of CK1δ in presence of inhibitor [1] | pIC50 [1] | Kinase activity of CK1α in presence of inhibitor (CK1α) | SMILES | Effects on cell viability of parental HeLa cells, compared with compounds 18 and 19 (parental HeLa cells) | Effects on cell viability of CK1δ−/− cells compared to parental and/or CK1δ+/+ cells (HeLa CK1δ−/− cells) | Cell viability of CK1δ-expressing cells (HeLa parental or CK1δ+/+) compared to CK1δ-deficient cells (HeLa CK1δ−/−) [4] | also measured
1 | strongly inhibited | slightly stronger | not affected | strongly inhibited | 5.70 | not affected | O=C(CSc1nccc(=O)n1-c1ccccc1)Nc1nc2ccc(C(F)(F)F)cc2s1 [Compound 16, 2-((3-Phenyl-4-oxo-3,4-dihydropyrimidin-2-yl)thio)-N-(6-(trifluoromethyl)benzo-[d]thiazol-2-yl)acetamide] | less pronounced | not reduced |  | Inhibition of CK1δ R127Q kinase activity compared to wild type CK1δ (CK1δ R127Q): significantly stronger inhibited
2 | strongly inhibited | slightly stronger | not affected | strongly inhibited |  | not affected | COc1ccc(OC)c(-n2c(SCC(=O)Nc3nc4ccc(C(F)(F)F)cc4s3)nccc2=O)c1 [Compound 17, 2-((3-(2,5-Dimethoxyphenyl)-4-oxo-3,4-dihydropyrimidin-2-yl)thio)-N-(6-(trifluoromethyl)benzo[d]thiazol-2-yl)acetamide] | less pronounced | not reduced |  | 
3 | strongly inhibited | slightly stronger | not affected | strongly inhibited | 5.77 | not affected | COc1ccc(-n2c(SCC(=O)Nc3nc4ccc(C(F)(F)F)cc4s3)nccc2=O)c(OC)c1 [Compound 18, 2-((3-(2,4-Dimethoxyphenyl)-4-oxo-3,4-dihydropyrimidin-2-yl)thio)-N-(6-(trifluoromethyl)benzo[d]thiazol-2-yl)acetamide] |  |  | more reduced | Effects on CK1δ R168H activity (CK1δ R168H): strongest effects; Effects on cell viability of CK1δ R127Q-expressing HeLa cells vs CK1δ WT-expressing cells [2]: stronger effects; Effects on cell viability of CK1δ R168H-expressing HeLa cells vs CK1δ WT-expressing cells [3]: stronger effects; pEC50 ([4]; CK1, 0.313-70 µM, read-out: EC50 (CK1δ+/+), cell viability): 5.13; Effects on cell viability of CK1δ T67S-expressing HeLa cells vs CK1δ WT-expressing cells [5]: stronger effects; pEC50 (HeLa CK1δ−/− cells; CK1, 0.313-70 µM, read-out: EC50 (CK1δ−/−), cell viability): 4.73
4 | strongly inhibited |  | not affected | strongly inhibited |  | not affected | COc1cc(OC)cc(-n2c(SCC(=O)Nc3nc4ccc(C(F)(F)F)cc4s3)nccc2=O)c1 [Compound 19, 2-((3-(3,5-Dimethoxyphenyl)-4-oxo-3,4-dihydropyrimidin-2-yl)thio)-N-(6-(trifluoromethyl)benzo[d]thiazol-2-yl)acetamide] |  |  | more reduced | 
5 | strongly inhibited |  | not affected | strongly inhibited | 6.92 |  | O=C(CSc1nccc(=O)n1Cc1ccc(C(F)(F)F)cc1)Nc1nc2ccc(C(F)(F)F)cc2s1 [Compound 21, 2-((3-(4-Trifluoromethylbenzyl)-4-oxo-3,4-dihydropyrimidin-2-yl)thio)-N-(6-(trifluoromethyl)benzo[d]thiazol-2-yl)acetamide] |  |  |  | Reduction of cell viability, SW620 (SW620 colon cancer cells; 10 µM, initial screening (Figure 10a)): ~50%; Dose-dependent effects on SW620 cell viability (SW620 colon cancer cells; 0.625 to 20 µM, MTT (Figure S2)): only visible at the highest concentrations tested; Reduction of cell viability, SW480 (SW480 colon cancer cells): minor changes; Reduction of cell viability, HT-29 (HT-29 colon cancer cells): minor changes; Reduction of CK1α activity (CK1α): at least 50%
